Values of other authors, collected in patent publication US6066339A (priority 1997, dated 2000).

System: μ-opioid
Conditions: animal experiments

## CN1CC[C@]23c4c5ccc(O)c4O[C@H]2[C@@H](O[C@@H]2O[C@H](C(=O)O)[C@@H](O)[C@H](O)[C@H]2O)C=C[C@H]3[C@H]1C5 [morphine-6-glucuronide]
  μ-opioid agonism: potent μ-opioid agonist
